For this test, the system named is P388 leukemia ip, CD2F1 mice, survival T/C. The test is described as follows: NCI In Vivo Anticancer Drug Screen. Data for tumor model P388 Leukemia (intraperitoneal) in CD2F1 (CDF1) mice. To be noted: endpoint: median survival time, higher = longer survival. A digest of the protocol:
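Mice carrying the transplanted tumor received test compound or vehicle. Survival was recorded in each group, and the value is the treated-group measurement divided by that of the vehicle-treated control group.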

Setting [1] is: dose: 50.0 mg/kg/injection, schedule: Q01DX005 (ip), vehicle: saline with Tween-80.
[2] abbreviates: dose: 100.0 mg/kg/injection, schedule: Q01DX005 (ip), vehicle: saline with Tween-80.
Where [3] appears, read: dose: 200.0 mg/kg/injection, schedule: Q01DX005 (ip), vehicle: saline with Tween-80.
[4] abbreviates: dose: 50.0 mg/kg/injection, schedule: Q01DX009 (ip), vehicle: saline with Tween-80.
The mark [5] stands for this setting: dose: 60.0 mg/kg/injection, schedule: Q01DX005 (ip), vehicle: Klucel (hydroxypropylcellulose) (HPC).
[6] abbreviates: dose: 120.0 mg/kg/injection, schedule: Q01DX005 (ip), vehicle: Klucel (hydroxypropylcellulose) (HPC).
[7] abbreviates: dose: 240.0 mg/kg/injection, schedule: Q01DX005 (ip), vehicle: Klucel (hydroxypropylcellulose) (HPC).
The mark [8] stands for this setting: dose: 50.0 mg/kg/injection, schedule: Q01DX005 (ip), vehicle: Klucel (hydroxypropylcellulose) (HPC).
The mark [9] stands for this setting: dose: 100.0 mg/kg/injection, schedule: Q01DX005 (ip), vehicle: Klucel (hydroxypropylcellulose) (HPC).
The mark [10] stands for this setting: dose: 200.0 mg/kg/injection, schedule: Q01DX005 (ip), vehicle: Klucel (hydroxypropylcellulose) (HPC).

Several values for one entry are separate records, joined by “and”; a condition that tells them apart may be missing. Equal values may be shown once. Inconclusive results and toxic doses are left out.

Regarding `O=NNc1cncc2ccccc12`, the T/C is 100 % of control (dose: 1.56 mg/kg/injection, schedule: Q01DX009 (ip), vehicle: water); 94 % of control (dose: 3.12 mg/kg/injection, schedule: Q01DX009 (ip), vehicle: water); 102 % of control (dose: 6.0 mg/kg/injection, schedule: Q01DX008 (ip), vehicle: water); 94 % of control (dose: 6.25 mg/kg/injection, schedule: Q01DX009 (ip), vehicle: water); 113 % of control (dose: 12.5 mg/kg/injection, schedule: Q01DX008 (ip), vehicle: water); 104 % of control (dose: 12.5 mg/kg/injection, schedule: Q01DX009 (ip), vehicle: water). Besides, the T/C reads like this: (dose: 25.0 mg/kg/injection, schedule: Q01DX008 (ip), vehicle: water) 111 % of control; (dose: 25.0 mg/kg/injection, schedule: Q01DX009 (ip), vehicle: water) 115 % of control; (dose: 50.0 mg/kg/injection, schedule: Q01DX008 (ip), vehicle: water) 116 % of control.

For the compound `NC(CSCc1ccc(N(CCCl)CCCl)cc1)C(=O)O` (stereo not drawn), the T/C runs as follows: (dose: 4.0 mg/kg/injection, schedule: Q01DX009 (ip), vehicle: saline with Tween-80) 172 % of control; (dose: 6.0 mg/kg/injection, schedule: Q01DX009 (ip), vehicle: saline with Tween-80) 218 % of control; (dose: 6.25 mg/kg/injection, schedule: Q01DX009 (ip), vehicle: saline with Tween-80) 245 % of control; (dose: 9.0 mg/kg/injection, schedule: Q01DX009 (ip), vehicle: saline with Tween-80) 159 % of control.

Consider `CC(C(O)c1cc2c(c3ccccc13)CCCC2)N1CCOCC1` (stereo not drawn), for which the T/C is, setting by setting: (dose: 100.0 mg/kg/injection, schedule: Q01DX009 (ip), vehicle: suspension in saline) 104 % of control; (dose: 200.0 mg/kg/injection, schedule: Q01DX009 (ip), vehicle: suspension in saline) 99 % of control; (dose: 400.0 mg/kg/injection, schedule: Q01DX009 (ip), vehicle: suspension in saline) 104 % of control.

Regarding `Clc1ccc2c(ccc3ccc(Cl)nc32)n1`, the T/C by setting is: (dose: 25.0 mg/kg/injection, schedule: Q04DX002 (ip), vehicle: saline with Tween-80) 100 % of control; (dose: 50.0 mg/kg/injection, schedule: Q04DX002 (ip), vehicle: saline with Tween-80) 98 % of control; (dose: 100.0 mg/kg/injection, schedule: Q04DX002 (ip), vehicle: saline with Tween-80) 89 % of control.

With `CN1CCC(O)CC1=O` (stereo not drawn), the T/C reads like this: under setting [1], 104 % of control; under setting [2], 98 % of control; under setting [3], 101 % of control.

Regarding `Nc1nc2ncc(CN(C(=O)CCCl)c3ccc(C(=O)NC(CCC(=O)O)C(=O)O)cc3)nc2c(=O)[nH]1` (stereo not drawn), the T/C is, setting by setting: (dose: 50.0 mg/kg/injection, schedule: Q01DX009 (ip), vehicle: alkali diluted with saline) 100 % of control; (dose: 100.0 mg/kg/injection, schedule: Q01DX009 (ip), vehicle: alkali diluted with saline) 108 % of control; (dose: 200.0 mg/kg/injection, schedule: Q01DX009 (ip), vehicle: alkali diluted with saline) 101 % of control.

In the case of `CCOC(=O)Cc1cc2cc(=O)[nH]cc2cc1C`, the T/C was 94 % of control (dose: 12.5 mg/kg/injection, schedule: Q01DX009 (ip), vehicle: distilled water + Tween-80); 93 % of control (dose: 25.0 mg/kg/injection, schedule: Q01DX009 (ip), vehicle: distilled water + Tween-80); 90 % of control (dose: 50.0 mg/kg/injection, schedule: Q01DX009 (ip), vehicle: distilled water + Tween-80); 87 % of control (dose: 200.0 mg/kg/injection, schedule: Q01DX009 (ip), vehicle: distilled water + Tween-80).

Regarding `Cc1c(C)c(C)c2c(c1C)CCC2O` (stereo not drawn), the T/C runs as follows: (dose: 12.5 mg/kg/injection, schedule: Q01DX009 (ip), vehicle: saline with Tween-80) 102 % of control and 100 % of control; (dose: 25.0 mg/kg/injection, schedule: Q01DX009 (ip), vehicle: saline with Tween-80) 105 % of control and 102 % of control; under setting [4], 105 % of control and 100 % of control.

As to `O=C1C2=C(Nc3cc(Cl)ccc3N2)OC1c1ccc2c(c1)OCO2` (stereo not drawn), the T/C reads like this: under setting [5], 101 % of control; under setting [6], 98 % of control; under setting [7], 101 % of control.

Consider `O=C(CN1CCNCC1)N1CCCC1`, for which the T/C under setting [8] was 106 % of control, the T/C under setting [9] was 97 % of control and the T/C under setting [10] was 98 % of control.

On to `N#Cc1c(-c2ccccc2)c(C#N)c(=O)n(N)c1N`, for which the T/C is, setting by setting: under setting [8], 91 % of control and 93 % of control; under setting [9], 86 % of control; under setting [10], 86 % of control.

On to `COC(=O)COC(=O)C1C(C(N)=O)N(CC(=O)OC)CCN1CC(=O)OC` (stereo not drawn), for which the T/C reads like this: under setting [1], 103 % of control; under setting [2], 103 % of control; under setting [3], 103 % of control.

With `CCNC(=O)/C=C(C)/C=C/C=C(C)/C=C/c1c(C)cc(OC)c(C)c1C`, the T/C is, setting by setting: (dose: 25.0 mg/kg/injection, schedule: Q01DX005 (ip), vehicle: Klucel (hydroxypropylcellulose) (HPC)) 86 % of control; under setting [8], 90 % of control; under setting [9], 100 % of control and 101 % of control; under setting [10], 108 % of control.

On to `N=C(N)SCCSC(=N)N`, for which the T/C by setting is: (dose: 25.0 mg/kg/injection, schedule: Q01DX009 (ip), vehicle: saline sonified) 90 % of control; (dose: 50.0 mg/kg/injection, schedule: Q01DX009 (ip), vehicle: saline sonified) 109 % of control; (dose: 100.0 mg/kg/injection, schedule: Q04DX002 (ip), vehicle: saline) 100 % of control; (dose: 200.0 mg/kg/injection, schedule: Q04DX002 (ip), vehicle: saline) 100 % of control.

Regarding `O=c1c2c(oc3cc(OCC4CO4)ccc13)CCC2` (stereo not drawn), the T/C by setting is: under setting [8], 93 % of control; under setting [9], 88 % of control; under setting [10], 95 % of control.

As to `Cc1ccc(N(CN2C(=O)CCC2=O)CS(=O)(=O)c2ccc(C)cc2)cc1`, the T/C reads like this: under setting [5], 97 % of control; under setting [6], 98 % of control and 93 % of control; under setting [7], 93 % of control and 96 % of control.

In the case of `O=C(CCCCCCCCc1ccccc1)c1c(O)cccc1O`, the T/C runs as follows: (dose: 6.0 mg/kg/injection, schedule: Q01DX009 (ip), vehicle: Klucel (hydroxypropylcellulose) (HPC)) 95 % of control; (dose: 12.0 mg/kg/injection, schedule: Q01DX009 (ip), vehicle: Klucel (hydroxypropylcellulose) (HPC)) 88 % of control; (dose: 24.0 mg/kg/injection, schedule: Q01DX009 (ip), vehicle: Klucel (hydroxypropylcellulose) (HPC)) 97 % of control; (dose: 48.0 mg/kg/injection, schedule: Q01DX009 (ip), vehicle: Klucel (hydroxypropylcellulose) (HPC)) 97 % of control.

Turning to `O=P(c1ccccc1)(c1ccccc1)C(O)c1cccs1` (stereo not drawn), the T/C runs as follows: (dose: 50.0 mg/kg/injection, schedule: Q01DX009 (ip), vehicle: Klucel (hydroxypropylcellulose) (HPC)) 90 % of control; (dose: 100.0 mg/kg/injection, schedule: Q01DX009 (ip), vehicle: Klucel (hydroxypropylcellulose) (HPC)) 88 % of control; (dose: 200.0 mg/kg/injection, schedule: Q01DX009 (ip), vehicle: Klucel (hydroxypropylcellulose) (HPC)) 92 % of control.

Take `CNc1ccccc1C(=O)NNC(=O)Nc1ccccc1C(F)(F)F`: the T/C under setting [1] was 98 % of control, the T/C under setting [2] is 100 % of control and the T/C under setting [3] is 111 % of control.

On to `CCC12COC3(C)CCC(C)(OC1)N23` (stereo not drawn), for which the T/C was 100 % of control (dose: 50.0 mg/kg/injection, schedule: Q01DX005 (ip), vehicle: saline); 91 % of control under setting [4]; 100 % of control (dose: 100.0 mg/kg/injection, schedule: Q01DX005 (ip), vehicle: saline); 91 % of control (dose: 100.0 mg/kg/injection, schedule: Q01DX009 (ip), vehicle: saline with Tween-80); 103 % of control (dose: 200.0 mg/kg/injection, schedule: Q01DX005 (ip), vehicle: saline); 98 % of control (dose: 200.0 mg/kg/injection, schedule: Q01DX009 (ip), vehicle: saline with Tween-80).

As to `C=C1C(=O)OC2C1CC(O)/C(C)=C\CCC1(C)OC21` (stereo not drawn), the T/C (dose: 50.0 mg/kg/injection, schedule: Q01DX009 (ip), vehicle: distilled water + Tween-80 + alcohol) was 117 % of control; the T/C (dose: 70.0 mg/kg/injection, schedule: Q01DX009 (ip), vehicle: distilled water + Tween-80 + alcohol) is 117 % of control; the T/C (dose: 70.0 mg/kg/injection, schedule: Q01DX009 (ip), vehicle: water) is 122 % of control; the T/C (dose: 90.0 mg/kg/injection, schedule: Q01DX009 (ip), vehicle: distilled water + Tween-80 + alcohol) is 104 % of control.

The record behind these values is PubChem BioAssay AID330 (DTP/NCI, 2004).
